Values joined by “and” are separate entries in the source; they are usually repeats but may differ in a detail not shown here. Equal values may be shown once.
Tests used:
[1] = biological target: Prothrombin (Homo sapiens, UniProt P00734); assay: Enzyme Inhibition Assay
Experimental: Thrombin-catalyzed hydrolysis rates were measured spectrophotometrically using human alpha-thrombin, a chromogenic substrate in aqueous buffer, and a microplate reader. […] The IC50 values were determined by fixing the enzyme and substrate concentrations and varying the inhibitor concentration. Ki values were determined by fixing the enzyme and inhibitor concentrations and varying the substrate concentration. Michaelis-Menton kinetics was applied to the initial reaction slopes using the program K.Cat (Bio Metallics Inc.).

[2] = biological target: T1, Serine protease 1 (Bos taurus, UniProt P00760); assay: Enzyme Inhibition Assay
T1 sequence (P00760 whole entry): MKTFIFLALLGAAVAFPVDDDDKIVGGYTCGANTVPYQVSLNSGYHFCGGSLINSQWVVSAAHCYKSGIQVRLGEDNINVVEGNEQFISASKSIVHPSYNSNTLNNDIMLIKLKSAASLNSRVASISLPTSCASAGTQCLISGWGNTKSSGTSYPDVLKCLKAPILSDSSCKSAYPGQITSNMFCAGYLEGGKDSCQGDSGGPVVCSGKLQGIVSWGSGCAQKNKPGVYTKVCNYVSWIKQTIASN

| IC50 [1] | Ki [2] | Ki [1] | Compound | also measured |
| --- | --- | --- | --- | --- |
| 13000 nM |  |  | CN[C@H](Cc1ccccc1)C(=O)N1CCC[C@H]1C(=O)N[C@@H](CCCNC(=N)N)C(=O)c1cc2ccccc2s1 |  |
|  | 2.7 nM |  | CN[C@H](Cc1ccccc1)C(=O)N1CCC[C@H]1C(=O)N[C@@H](CCCN=C(N)N)C(=O)c1nc2ccc(C(=O)O)cc2s1 [2-[(2S)-5-carbamimidamido-2-{[(2S)-1-[(2R)-2-(methylamino)-3-phenylpropanoyl]pyrrolidin-2-yl]formamido}pentanoyl]-1,3-benzothiazole-6-carboxylic acid] |  |
|  | 1.8 nM |  | NC(N)=NCCCC(NC(=O)[C@@H]1CCCN1C(=O)C(N)(c1ccccc1)c1ccccc1)C(=O)c1nc2ccccc2s1 (stereo partly drawn) [(2S)-1-(2-amino-2,2-diphenylacetyl)-N-[1-(1,3-benzothiazol-2-yl)-5-carbamimidamido-1-oxopentan-2-yl]pyrrolidine-2-carboxamide] | IC50 ([1]; pH 7.4, 37 °C): 15 nM; Ki ([1]; pH 7.4, 37 °C): 2.1 nM |
|  | 3.9 nM |  | CC(N)(Cc1ccccc1)C(=O)N1CCC[C@H]1C(=O)NC(CCCN=C(N)N)C(=O)c1nc2ccccc2s1 (stereo partly drawn) [(2S)-1-(2-amino-2-benzylpropanoyl)-N-[1-(1,3-benzothiazol-2-yl)-5-carbamimidamido-1-oxopentan-2-yl]pyrrolidine-2-carboxamide] |  |
|  |  |  | NC(N)=NCCCC(NC(=O)[C@@H]1CCCN1C(=O)[C@@H](N)Cc1ccccc1)C(=O)c1nc2ccccc2s1 (stereo partly drawn) [(2S)-1-[(2S)-2-amino-3-phenylpropanoyl]-N-[1-(1,3-benzothiazol-2-yl)-5-carbamimidamido-1-oxopentan-2-yl]pyrrolidine-2-carboxamide] | IC50 [2]: 5.8 nM |
| 48000 nM and 17000 nM | 180000 nM and 250000 nM | 5300 nM and 1600 nM | CN[C@H](Cc1ccccc1)C(=O)N1CCC[C@H]1C(=O)NC(CCCN=C(N)N)C(O)c1nc2ccccc2s1 (stereo partly drawn) [(2S)-N-[1-(1,3-benzothiazol-2-yl)-5-carbamimidamido-1-hydroxypentan-2-yl]-1-[(2R)-2-(methylamino)-3-phenylpropanoyl]pyrrolidine-2-carboxamide] |  |
|  |  |  | CN[C@@H](C(=O)N1CCC[C@H]1C(=O)NC(CCCN=C(N)N)C(=O)c1nc2ccccc2s1)c1ccccc1 (stereo partly drawn) [(2S)-N-[1-(1,3-benzothiazol-2-yl)-5-carbamimidamido-1-oxopentan-2-yl]-1-[(2R)-2-(methylamino)-2-phenylacetyl]pyrrolidine-2-carboxamide] | IC50 [2]: 32 nM |
|  |  |  | CN[C@H](Cc1ccccc1)C(=O)N1CCC[C@H]1C(=O)NC(CCCN=C(N)N)C(=O)c1nc2ccccc2s1 (stereo partly drawn) [(2S)-N-[1-(1,3-benzothiazol-2-yl)-5-carbamimidamido-1-oxopentan-2-yl]-1-[(2R)-2-(methylamino)-3-phenylpropanoyl]pyrrolidine-2-carboxamide] | IC50 ([1]; pH 7.4, 37 °C): 29 nM; Ki ([1]; pH 7.4, 37 °C): 0.2 nM |
|  | 3.3 nM |  | CN[C@H](Cc1ccc(F)cc1)C(=O)N1CCC[C@H]1C(=O)NC(CCCN=C(N)N)C(=O)c1nc2ccccc2s1 (stereo partly drawn) [(2S)-N-[1-(1,3-benzothiazol-2-yl)-5-carbamimidamido-1-oxopentan-2-yl]-1-[(2R)-3-(4-fluorophenyl)-2-(methylamino)propanoyl]pyrrolidine-2-carboxamide] |  |
| 95 nM | 2 nM | 3.1 nM | NC(N)=NCCCC(NC(=O)[C@@H]1CCCN1C(=O)C1(O)c2ccccc2-c2ccccc21)C(=O)c1nc2ccccc2s1 (stereo partly drawn) [(2S)-N-[1-(1,3-benzothiazol-2-yl)-5-carbamimidamido-1-oxopentan-2-yl]-1-[(9-hydroxy-9H-fluoren-9-yl)carbonyl]pyrrolidine-2-carboxamide] |  |
| 1500 nM | 5800 nM | 200 nM | CN[C@H](Cc1ccccc1)C(=O)N1CCC[C@H]1C(=O)NC(CCCN=C(N)N)C(=O)c1nccn1C (stereo partly drawn) [(2S)-N-[5-carbamimidamido-1-(1-methyl-1H-imidazol-2-yl)-1-oxopentan-2-yl]-1-[(2R)-2-(methylamino)-3-phenylpropanoyl]pyrrolidine-2-carboxamide] |  |
| 19 nM | 1.2 nM | 2.1 nM | CN[C@H](Cc1ccccc1)C(=O)N1CCC[C@H]1C(=O)NC(CCCN=C(N)N)C(=O)c1nccs1 (stereo partly drawn) [(2S)-N-[5-carbamimidamido-1-oxo-1-(1,3-thiazol-2-yl)pentan-2-yl]-1-[(2R)-2-(methylamino)-3-phenylpropanoyl]pyrrolidine-2-carboxamide] |  |
| 930 nM | 73 nM | 85 nM | CN[C@H](Cc1ccccc1)C(=O)N1CCC[C@H]1C(=O)NC(CCCN=C(N)N)C(=O)c1ccccn1 (stereo partly drawn) [(2S)-N-[5-carbamimidamido-1-oxo-1-(pyridin-2-yl)pentan-2-yl]-1-[(2R)-2-(methylamino)-3-phenylpropanoyl]pyrrolidine-2-carboxamide] |  |
| > 100000 nM |  |  | CN[C@H](Cc1ccccc1)C(=O)N1CCC[C@H]1C(=O)N[C@H](CC(=O)c1nc2ccccc2s1)C1CCC(N)CC1 (stereo partly drawn) [(2S)-N-[(1R)-1-(4-aminocyclohexyl)-3-(1,3-benzothiazol-2-yl)-3-oxopropyl]-1-[(2R)-2-(methylamino)-3-phenylpropanoyl]pyrrolidine-2-carboxamide] | IC50 [2]: 58000 nM |
| > 1000 nM |  |  | CN[C@H](Cc1ccccc1)C(=O)N1CCC[C@H]1C(=O)N[C@@H](C(=O)c1nc2ccccc2s1)C1CCC(CN)CC1 (stereo partly drawn) [(2S)-N-[(1R)-1-[4-(aminomethyl)cyclohexyl]-2-(1,3-benzothiazol-2-yl)-2-oxoethyl]-1-[(2R)-2-(methylamino)-3-phenylpropanoyl]pyrrolidine-2-carboxamide] |  |
| > 100000 nM |  |  | CN[C@H](Cc1ccccc1)C(=O)N1CCC[C@H]1C(=O)N[C@@H](CC(=O)c1nc2ccccc2s1)C1CCC(N)CC1 (stereo partly drawn) [(2S)-N-[(1S)-1-(4-aminocyclohexyl)-3-(1,3-benzothiazol-2-yl)-3-oxopropyl]-1-[(2R)-2-(methylamino)-3-phenylpropanoyl]pyrrolidine-2-carboxamide] | IC50 [2]: 22000 nM |
| 17000 nM | 54 nM | 920 nM | CN[C@H](Cc1ccccc1)C(=O)N1CCC[C@H]1C(=O)N[C@H](C(=O)c1nc2ccccc2s1)C1CCC(CN)CC1 (stereo partly drawn) [(2S)-N-[(1S)-1-[4-(aminomethyl)cyclohexyl]-2-(1,3-benzothiazol-2-yl)-2-oxoethyl]-1-[(2R)-2-(methylamino)-3-phenylpropanoyl]pyrrolidine-2-carboxamide] |  |
| > 1000 nM |  |  | CNCCCC[C@@H](NC(=O)[C@@H]1CCCN1C(=O)[C@@H](Cc1ccccc1)NC)C(=O)c1nc2ccccc2s1 [(2S)-N-[(2R)-1-(1,3-benzothiazol-2-yl)-6-(methylamino)-1-oxohexan-2-yl]-1-[(2R)-2-(methylamino)-3-phenylpropanoyl]pyrrolidine-2-carboxamide] |  |
| > 1000 nM |  |  | CN[C@H](Cc1ccccc1)C(=O)N1CCC[C@H]1C(=O)N[C@@H](Cc1ccccc1)C(=O)c1nc2ccccc2s1 [(2S)-N-[(2S)-1-(1,3-benzothiazol-2-yl)-1-oxo-3-phenylpropan-2-yl]-1-[(2R)-2-(methylamino)-3-phenylpropanoyl]pyrrolidine-2-carboxamide] |  |
| > 1000 nM |  |  | CN[C@H](Cc1ccccc1)C(=O)N1CCC[C@H]1C(=O)N[C@@H](Cc1ccc(C(=N)N)cc1)C(=O)c1nc2ccccc2s1 [(2S)-N-[(2S)-1-(1,3-benzothiazol-2-yl)-3-(4-carbamimidoylphenyl)-1-oxopropan-2-yl]-1-[(2R)-2-(methylamino)-3-phenylpropanoyl]pyrrolidine-2-carboxamide] |  |
|  |  |  | CN[C@@H](C(=O)N1CCC[C@H]1C(=O)N[C@@H](CCCN=C(N)N)C(=O)c1nc2ccccc2s1)C(c1ccccc1)c1ccccc1 [(2S)-N-[(2S)-1-(1,3-benzothiazol-2-yl)-5-carbamimidamido-1-oxopentan-2-yl]-1-[(2R)-2-(methylamino)-3,3-diphenylpropanoyl]pyrrolidine-2-carboxamide] | IC50 [2]: 30 nM |
| > 1000 nM |  |  | CNCCCC[C@H](NC(=O)[C@@H]1CCCN1C(=O)[C@@H](Cc1ccccc1)NC)C(=O)c1nc2ccccc2s1 [(2S)-N-[(2S)-1-(1,3-benzothiazol-2-yl)-6-(methylamino)-1-oxohexan-2-yl]-1-[(2R)-2-(methylamino)-3-phenylpropanoyl]pyrrolidine-2-carboxamide] |  |
| 460 nM | 87 nM | 53 nM | CCS(=O)(=O)N[C@H](Cc1ccccc1)C(=O)N1CCC[C@H]1C(=O)N[C@@H](C(=O)c1nc2ccccc2s1)C1CCC(N)CC1 (stereo partly drawn) [The relative stereochemistry of the cyclohexyl ring is trans] |  |
| 1900 nM | 330 nM | 110 nM | CN[C@H](Cc1ccccc1)C(=O)N1CCC[C@H]1C(=O)N[C@@H](C(=O)c1nc2ccccc2s1)C1CCC(N)CC1 (stereo partly drawn) [The relative stereochemistry of the cyclohexyl ring is trans] |  |

| Compound | IC50 [1] | Ki [2] | Ki [1] | also measured |
| --- | --- | --- | --- | --- |
| N=C(N)NCCCCC(=O)c1nc2ccccc2s1 [3-[5-(1,3-benzothiazol-2-yl)-5-oxopentyl]guanidine] | > 300000 nM | > 100000 nM |  |  |
| CN[C@@H](C(=O)N1CCC[C@H]1C(=O)N[C@@H](CCCN=C(N)N)C(=O)c1nc2ccccc2s1)C1CCCCC1 [(2S)-N-[(2S)-1-(1,3-benzothiazol-2-yl)-5-carbamimidamido-1-oxopentan-2-yl]-1-[(2R)-2-cyclohexyl-2-(methylamino)acetyl]pyrrolidine-2-carboxamide] |  | 1.2 nM |  | IC50 ([1]; pH 7.4, 37 °C): 5.3 nM; Ki ([1]; pH 7.4, 37 °C): 0.018 nM |

— BindingDB's records for doi:10.1021/jm0303857 (Johnson & Johnson Pharmaceutical, 2005)
